Experimental data from the supplement of paper PMC10307832.

Tests used:
Assay in all cases: relative viability (nuclei count vs DMSO), 5 days (fraction); higher = more cells survive
PC-14 = system: PC-14
In short: (§1)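 Nuclei were stained with Hoechst during a one-step fixation (final 0.05% Triton X-100, 1% formaldehyde, 1 ug/ml Hoechst) carried out 5 days after dosing, then counted on 4× images. The cells, lung cancer lines in 1536-well plates, had been dosed by pin tool the day after seeding with one drug alone or a fixed anchor-drug dose plus five library-drug doses (not always all listed) in √10 steps. Relative viability is the nuclei count in treated wells divided by that in vehicle wells, and each value is the median of duplicate plates.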

NCI-H1915 = system: NCI-H1915
In short: as §1

NCI-H647 = system: NCI-H647
In short: as §1

NCI-H520 = system: NCI-H520
In short: as §1

EPLC-272H = system: EPLC-272H
In short: as §1

COR-L 105 = system: COR-L 105
In short: as §1

H3255 = system: H3255
In short: as §1

HCC-78 = system: HCC-78
In short: as §1

LC-2-ad = system: LC-2-ad
In short: as §1

201T = system: 201T
In short: as §1

HCC-827 = system: HCC-827
In short: as §1

NCI-H23 = system: NCI-H23
In short: as §1

ChaGo-K-1 = system: ChaGo-K-1
In short: as §1

NCI-H2405 = system: NCI-H2405
In short: as §1

RERF-LC-KJ = system: RERF-LC-KJ
In short: as §1

NCI-H2347 = system: NCI-H2347
In short: as §1

NCI-H661 = system: NCI-H661
In short: as §1

NCI-H2126 = system: NCI-H2126
In short: as §1

LCLC-97TM1 = system: LCLC-97TM1
In short: as §1

NCI-H650 = system: NCI-H650
In short: as §1

NCI-H2087 = system: NCI-H2087
In short: as §1

NCI-H1666 = system: NCI-H1666
In short: as §1

O=c1cc(-c2cccc3c2Sc2ccccc2S3)oc(N2CCOCC2)c1 + O=C(c1cc(Cc2n[nH]c(=O)c3ccccc23)ccc1F)N1CCN(C(=O)C2CC2)CC1 [Olaparib] (partner 8 µM)
relative viability (PC-14; first compound 0.08 µM): 0.232 | relative viability (PC-14; first compound 0.253 µM): 0.214 | relative viability (PC-14; first compound 0.8 µM): 0.237 | relative viability (PC-14; first compound 2.53 µM): 0.169 | relative viability (PC-14; first compound 8 µM): 0.165 | relative viability (NCI-H1915; first compound 0.08 µM): 0.425 | relative viability (NCI-H1915; first compound 0.253 µM): 0.266 | relative viability (NCI-H1915; first compound 0.8 µM): 0.296 | relative viability (NCI-H1915; first compound 2.53 µM): 0.305 | relative viability (NCI-H1915; first compound 8 µM): 0.226 | relative viability (NCI-H647; first compound 0.08 µM): 0.642 | relative viability (NCI-H647; first compound 0.253 µM): 0.851 | relative viability (NCI-H647; first compound 0.8 µM): 0.596 | relative viability (NCI-H647; first compound 2.53 µM): 0.452 | relative viability (NCI-H647; first compound 8 µM): 0.272 | relative viability (NCI-H520; first compound 0.08 µM): 0.391 | relative viability (NCI-H520; first compound 0.253 µM): 0.321 | relative viability (NCI-H520; first compound 0.8 µM): 0.439 | relative viability (NCI-H520; first compound 2.53 µM): 0.322 | relative viability (NCI-H520; first compound 8 µM): 0.339 | relative viability (EPLC-272H; first compound 0.08 µM): 0.986 | relative viability (EPLC-272H; first compound 0.253 µM): 0.896 | relative viability (EPLC-272H; first compound 0.8 µM): 0.998 | relative viability (EPLC-272H; first compound 2.53 µM): 0.774 | relative viability (EPLC-272H; first compound 8 µM): 0.483 | relative viability (COR-L 105; first compound 0.08 µM): 0.546 | relative viability (COR-L 105; first compound 0.253 µM): 0.665 | relative viability (COR-L 105; first compound 0.8 µM): 0.468 | relative viability (COR-L 105; first compound 2.53 µM): 0.682 | relative viability (COR-L 105; first compound 8 µM): 0.78 | relative viability (H3255; first compound 0.08 µM): 0.592 | relative viability (H3255; first compound 0.253 µM): 0.586 | relative viability (H3255; first compound 0.8 µM): 0.571 | relative viability (H3255; first compound 2.53 µM): 0.525 | relative viability (H3255; first compound 8 µM): 0.594 | relative viability (HCC-78; first compound 0.08 µM): 0.792 | relative viability (HCC-78; first compound 0.253 µM): 0.853 | relative viability (HCC-78; first compound 0.8 µM): 0.935 | relative viability (HCC-78; first compound 2.53 µM): 0.839 | relative viability (HCC-78; first compound 8 µM): 0.734 | relative viability (LC-2-ad; first compound 0.08 µM): 0.791 | relative viability (LC-2-ad; first compound 0.253 µM): 0.83 | relative viability (LC-2-ad; first compound 0.8 µM): 0.713 | relative viability (LC-2-ad; first compound 2.53 µM): 0.649 | relative viability (LC-2-ad; first compound 8 µM): 0.64 | relative viability (201T; first compound 0.08 µM): 0.688 | relative viability (201T; first compound 0.253 µM): 0.909 | relative viability (201T; first compound 0.8 µM): 0.861 | relative viability (201T; first compound 2.53 µM): 0.84 | relative viability (201T; first compound 8 µM): 0.703 | relative viability (HCC-827; first compound 0.08 µM): 0.621 | relative viability (HCC-827; first compound 0.253 µM): 0.716 | relative viability (HCC-827; first compound 0.8 µM): 0.677 | relative viability (HCC-827; first compound 2.53 µM): 0.588 | relative viability (HCC-827; first compound 8 µM): 0.768 | relative viability (NCI-H23; first compound 0.08 µM): 0.313 | relative viability (NCI-H23; first compound 0.253 µM): 0.309 | relative viability (NCI-H23; first compound 0.8 µM): 0.24 | relative viability (NCI-H23; first compound 2.53 µM): 0.269 | relative viability (NCI-H23; first compound 8 µM): 0.268 | relative viability (ChaGo-K-1; first compound 0.08 µM): 0.503 | relative viability (ChaGo-K-1; first compound 0.253 µM): 0.494 | relative viability (ChaGo-K-1; first compound 0.8 µM): 0.415 | relative viability (ChaGo-K-1; first compound 2.53 µM): 0.466 | relative viability (ChaGo-K-1; first compound 8 µM): 0.411 | relative viability (NCI-H2405; first compound 0.08 µM): 0.861 | relative viability (NCI-H2405; first compound 0.253 µM): 1.04 | relative viability (NCI-H2405; first compound 0.8 µM): 0.791 | relative viability (NCI-H2405; first compound 2.53 µM): 0.8 | relative viability (NCI-H2405; first compound 8 µM): 0.936 | relative viability (RERF-LC-KJ; first compound 0.08 µM): 1.08 | relative viability (RERF-LC-KJ; first compound 0.253 µM): 1.07 | relative viability (RERF-LC-KJ; first compound 0.8 µM): 0.9 | relative viability (RERF-LC-KJ; first compound 2.53 µM): 0.977 | relative viability (RERF-LC-KJ; first compound 8 µM): 0.843 | relative viability (NCI-H2347; first compound 0.08 µM): 0.53 | relative viability (NCI-H2347; first compound 0.253 µM): 0.561 | relative viability (NCI-H2347; first compound 0.8 µM): 0.591 | relative viability (NCI-H2347; first compound 2.53 µM): 0.585 | relative viability (NCI-H2347; first compound 8 µM): 0.638 | relative viability (NCI-H661; first compound 0.08 µM): 0.809 | relative viability (NCI-H661; first compound 0.253 µM): 0.808 | relative viability (NCI-H661; first compound 0.8 µM): 0.76 | relative viability (NCI-H661; first compound 2.53 µM): 0.777 | relative viability (NCI-H661; first compound 8 µM): 0.712 | relative viability (NCI-H2126; first compound 0.08 µM): 1.06 | relative viability (NCI-H2126; first compound 0.253 µM): 0.991 | relative viability (NCI-H2126; first compound 0.8 µM): 1.01 | relative viability (NCI-H2126; first compound 2.53 µM): 0.9 | relative viability (NCI-H2126; first compound 8 µM): 0.91 | relative viability (LCLC-97TM1; first compound 0.08 µM): 0.404 | relative viability (LCLC-97TM1; first compound 0.253 µM): 0.555 | relative viability (LCLC-97TM1; first compound 0.8 µM): 0.463 | relative viability (LCLC-97TM1; first compound 2.53 µM): 0.31 | relative viability (LCLC-97TM1; first compound 8 µM): 0.378 | relative viability (NCI-H650; first compound 0.08 µM): 0.397 | relative viability (NCI-H650; first compound 0.253 µM): 0.402 | relative viability (NCI-H650; first compound 0.8 µM): 0.424 | relative viability (NCI-H650; first compound 2.53 µM): 0.378 | relative viability (NCI-H650; first compound 8 µM): 0.415 | relative viability (NCI-H2087; first compound 0.08 µM): 0.604 | relative viability (NCI-H2087; first compound 0.253 µM): 0.605 | relative viability (NCI-H2087; first compound 0.8 µM): 0.682 | relative viability (NCI-H2087; first compound 2.53 µM): 0.638 | relative viability (NCI-H2087; first compound 8 µM): 0.561 | relative viability (NCI-H1666; first compound 0.08 µM): 0.691 | relative viability (NCI-H1666; first compound 0.253 µM): 0.733 | relative viability (NCI-H1666; first compound 0.8 µM): 0.681 | relative viability (NCI-H1666; first compound 2.53 µM): 0.691 | relative viability (NCI-H1666; first compound 8 µM): 0.671
